# Assay results: article PMC9643865, “Bromo-protopine, a novel protopine derivative, alleviates tau pathology by activating chaperone-mediated autophagy for Alzheimer’s disease therapy” (Frontiers in Molecular Biosciences, 2022)
# Key:
# P301S mice [1] = test: Brain immunoblotting (sarkosyl tau fractions, chaperones, LAMP2A) and IHC; format: in vivo
# Experimental: (§1) Female homozygous P301S mice bearing the transgene for MAPT (P301S), were generous gifts from Michael Goedert. P301S-tau mice (1.5-month-old, n = 8) were administered with PRO-Br daily for 2.5 months. The mice models employed in the study were maintained under 12 h light-dark cycles and were provided ad libitum access to chow and water.
# Brain tissues from experimental mice were carefully isolated, washed with 1X PBS, and fixed with 4% paraformaldehyde. Post-fixation for 48 h, brain tissues were transferred to 30% sucrose solution for cryopreservation. Tissue sections (30 μm) were obtained using a cryotome, maintained at a constant -30°C. Permeabilization was performed with 0.4% triton-X-100 for 10 min. For tau immunofluorescence, PHF1 primary antibody was added, and sections were kept overnight at four°C. The following day, an appropriate secondary antibody was added at RT for 1.5 h. DAPI was used as a nuclear stain for 5 min. For DAB staining, AT8 primary antibody was added to the sections overnight. The next day, an appropriate secondary antibody was added for 1.5 h. Staining was performed by employing a Vectastain-ELITE ABC-HRP kit according to the manufacturer’s procedure. […] Images of cortical/hippocampal regions were taken with an Eclipse 80i fluorescence microscope (Nikon Instruments Inc.). […] The captured images were quantified using ImageJ (NIH) software.
# Brain tissues of 3xTg-AD and P301S mice were separated, sagittally, into equal halves. […] Protein lysates were evaluated for changes in levels of phospho epitopes of tau (AT8, CP13, PHF-1, MC-1, and ALZ50), and for total htau (HT7) using Western blot.
# After PRO-Br treatment, cells were solubilised using cold RIPA lysis buffer (9803, Life Technologies), containing protease and phosphatase inhibitor tablets. […] Total protein concentration was determined by BCA protein assay, and the samples were separated on SDS-PAGE and transferred to PVDF membranes. […] Films were scanned, and the relative intensities of the signals were analyzed using ImageJ software.
# SHSYP301L cells = test: Immunoblotting of tau, Ac-α-tubulin and chaperones in tau-overexpressing cells; format: cell-based
# Experimental: (§2) SHSY5Y cells stably-expressing mutant tau (SHSYP301L) were cultured in DMEM/F12 + 15% FBS, 3 μg/ml Blasticidin S HCl, and 1X PSN. N2A mouse neuroblastoma and mouse hippocampal neuronal (HT22) cells were cultured in DMEM+10% FBS, and 1X PSN. Sterile complete medium containing PRO-Br was added to the cells, and they were then incubated for 24 h at an optimum temperature of 37°C in a sterile 5% CO2 incubator.
# (§3) After PRO-Br treatment, cells were solubilised using cold RIPA lysis buffer (9803, Life Technologies), containing protease and phosphatase inhibitor tablets. Cells were sonicated and centrifuged at 14000 rpm for 15 min. Total protein concentration was determined by BCA protein assay, and the samples were separated on SDS-PAGE and transferred to PVDF membranes. The membranes were blocked, washed, and incubated with primary antibodies (Table 1), and incubated at 4°C, overnight. The membranes were further incubated with the required dilutions of secondary antibody for 1 h, at RT. The chemiluminescent signals were captured using x-ray film in a darkroom, with an appropriate chemiluminescent substrate kit (ThermoFisher Scientific, United States). Films were scanned, and the relative intensities of the signals were analyzed using ImageJ software.
# 3xTg-AD mice = test: Brain immunoblotting (sarkosyl tau fractions, chaperones, LAMP2A) and IHC; format: in vivo
# Experimental: Female homozygous 3xTg-AD mice carrying transgenes for APP (Swedish KM670/671Nl), MAPT (tauP301L) and Psen1 (M146V) were procured from Jackson’s Laboratory (# 004807). The transgenic mice colonies were bred and maintained in the HKBU animal house at 23 ± 2 °C, 60 ± 15% relative humidity with regular access to food and water. Seven-month-old 3xTg-AD mice were randomly segregated into three treatment groups: Tg-Vehicle, 1 mg/kg, and 2.5 mg/kg PRO-Br. PRO-Br was administered orally for 8 months (n = 8). The bodyweight of mice from all the groups was recorded once every week.
# Brain tissues from experimental mice were carefully isolated, washed with 1X PBS, and fixed with 4% paraformaldehyde. Post-fixation for 48 h, brain tissues were transferred to 30% sucrose solution for cryopreservation. Tissue sections (30 μm) were obtained using a cryotome, maintained at a constant -30°C. Permeabilization was performed with 0.4% triton-X-100 for 10 min. For tau immunofluorescence, PHF1 primary antibody was added, and sections were kept overnight at four°C. The following day, an appropriate secondary antibody was added at RT for 1.5 h. DAPI was used as a nuclear stain for 5 min. For DAB staining, AT8 primary antibody was added to the sections overnight. The next day, an appropriate secondary antibody was added for 1.5 h. Staining was performed by employing a Vectastain-ELITE ABC-HRP kit according to the manufacturer’s procedure. The stained sections were carefully arranged on glass slides and mounted with an appropriate mounting medium under a coverslip. Images of cortical/hippocampal regions were taken with an Eclipse 80i fluorescence microscope (Nikon Instruments Inc.). The threshold was adjusted to remove the background staining. The captured images were quantified using ImageJ (NIH) software.
# Brain tissues of 3xTg-AD and P301S mice were separated, sagittally, into equal halves. One-half was lysed with tissue lysis buffer augmented with phosphatase and protease inhibitor cocktail tablets, while the other half was used for immunohistochemical analysis. Brain tissues were homogenized on ice using an Ultra Turrax tissue homogenizer. Brain tissue homogenate was subjected to sarkosyl differential centrifugation with 1% sarkosyl to separate the non-pathogenic soluble and pathogenic insoluble tau fractions. Protein lysates were evaluated for changes in levels of phospho epitopes of tau (AT8, CP13, PHF-1, MC-1, and ALZ50), and for total htau (HT7) using Western blot.
# as §3
# P301S mice [2] = test: Contextual fear conditioning test; format: in vivo; conditions: oral, 2.5 months
# Experimental: as §1
# After treating P301S mice with PRO-Br, fear memory consolidation was evaluated by the contextual fear conditioning (CFC) test. The experimental set-up consisted of two individual sound-proof chambers, each having an electric grid on the surface. Inside each chamber, a speaker was attached to introduce a cue tone. The movement of the mice was observed and recorded by ANY maze tracking software on a laptop. The experiment was performed with a continuous white noise (40 units) and white light (40 lux). On the first day of the training session, mice were introduced into the chamber and permitted to explore for 2.5 min. Next, each mouse received three consecutive foot shock cycles; each started with a 28 s cue tone (1,500 Hz) and finished with a 2 s foot shock ([…]). On the second day, the mice were allowed to explore the grid for 3 min, after which they received a cue tone for 30 s without foot shock, and the freezing time was recorded.
# N2A cells = test: LAMP2A / HSC70 expression; format: cell-based, mouse; conditions: compared to Trehalose (positive control)
# Experimental: as §2, §3
# HT22 cells = test: LAMP2A / HSC70 immunocytochemistry and immunoblotting; format: cell-based, mouse
# Experimental: as §2, §3
# HT22 cells were cultured in sterile 24-well culture dishes containing 14 mm cover-glass. Cells were treated with PRO-Br (12.5 and 25 μM), and DMSO (0.1%), for 24 h. Cells were fixed with paraformaldehyde (4%), permeabilized with triton-X-100 (0.1%), and blocked with BSA (2%). LAMP2A antibody (1:500), and HSC70 antibody (1:500) was added to the processed cells and incubated overnight at four°C. Alexa Fluor® 488 (green) and Alexa Fluor® 594 (red) secondary antibodies (1:400) were added and incubated for 1.5 h at room temperature. FluorSave reagent (Merck Millipore, United States) was added, then cover-slipped, and images were captured by a Leica confocal imaging system.
compound,measurement,setting,value
"CN1CCc2cc3c(cc2C(=O)Cc2c(Br)cc4c(c2C1)OCO4)OCO3 [PRO-Br, bromo-protopine]",AT8- and PHF1-positive cell counts,P301S mice [1]; IHC,significantly reduced
same,expression of sarkosyl-insoluble phospho-tau variants,"P301S mice [1]; brain, immunoblotting",specifically reduced the expression of sarkosyl-insoluble phospho-tau variants in a dose-dependent manner
same,protein expression of LAMP2A,"P301S mice [1]; brain, immunoblotting",dose-dependently increased
same,PHF1 and TAU5 levels,SHSYP301L cells; 24 h,simultaneously reducing PHF1 and TAU5 levels
same,expression of HSP70,SHSYP301L cells; 24 h,significantly and dose-dependently augmented the expression of HSP70
same,acetylation of α-tubulin,SHSYP301L cells; compared to PRO,enhanced the acetylation of α-tubulin
same,PHF1 degradation on co-treatment with CMA/lysosomal protease inhibitors E64D and pepstatin,SHSYP301L cells; compared to PRO-Br treatment alone,significantly blocked the degradation of PHF1 levels
same,tau/PHF1-reducing activity,SHSYP301L cells; preliminary screening,good tau/PHF1-reducing activity
same,"PHF1 degradation on co-treatment with MG132, Wortmannin or Chloroquine","SHSYP301L cells; proteasome, autophagy or lysosome inhibitor co-treatment",did not block PRO-Br-mediated PHF1 degradation
same,AT8-positive cell count in the cortico-hippocampal regions,"3xTg-AD mice; 1.0 and 2.5 mg/kg, IHC",significantly reduced AT8-positive cell count
same,acetylation of HSP90 (K294),"3xTg-AD mice; brain, immunoblotting",dose-dependently enhanced the acetylation of HSP90 (K294)
same,expression of sarkosyl-insoluble phospho-tau variants,"3xTg-AD mice; brain, immunoblotting",specifically reduced the expression of sarkosyl-insoluble phospho-tau variants in a dose-dependent manner
same,heat shock proteins HSP70 and HSC70,"3xTg-AD mice; brain, immunoblotting",dose-dependently increased the heat shock proteins HSP70 and HSC70
same,protein expression of LAMP2A,"3xTg-AD mice; brain, immunoblotting",dose-dependently increased
same,freezing percentage (CFC),P301S mice [2],significant increase in freezing percentage
same,expression of LAMP2A and HSC70,N2A cells,increased expression of LAMP2A and HSC70
same,expression of LAMP2A,"HT22 cells; immunocytochemistry, 12.5 and 25 μM, 24 h",distinctly enhanced the expression of LAMP2A in a dose-dependent manner
same,interaction between HSC70 and LAMP2A,HT22 cells; immunofluorescence,markedly enhanced the interaction between HSC70 and LAMP2A
